Measured values reported in ChEMBL document CHEMBL3576856, “Membrane-Targeting DCAP Analogues with Broad-Spectrum Antibiotic Activity against Pathogenic Bacteria” (2015).
Converted amounts (≈) assume the structure as drawn. The source made the active and inactive calls. The calls are words filed in the database; no cut-off is given here.

Columns and labels:
Escherichia coli [1] = experiment: Antimicrobial activity against Escherichia coli BW25113 expressing delta-tolC gene incubated for 16 to 18 hrs by macrodilution method; type: functional
Escherichia coli [2] = experiment: Antimicrobial activity against Escherichia coli BW25113 incubated for 16 to 18 hrs by macrodilution method; type: functional
Francisella tularensis = experiment: Antimicrobial activity against Francisella tularensis incubated for 16 to 18 hrs by macrodilution method; type: functional
Bacillus anthracis = experiment: Antimicrobial activity against Bacillus anthracis incubated for 16 to 18 hrs by macrodilution method; type: functional
Burkholderia mallei = experiment: Antimicrobial activity against Burkholderia mallei incubated for 16 to 18 hrs by macrodilution method; type: functional
Yersinia pestis = experiment: Antimicrobial activity against Yersinia pestis incubated for 16 to 18 hrs by macrodilution method; type: functional
[3] = system: Burkholderia pseudomallei; experiment: Antimicrobial activity against Burkholderia pseudomallei incubated for 16 to 18 hrs by macrodilution method; type: functional
Vibrio cholerae = experiment: Antimicrobial activity against Vibrio cholerae incubated for 16 to 18 hrs by macrodilution method; type: functional
Salmonella typhimurium = experiment: Antimicrobial activity against Salmonella typhimurium incubated for 16 to 18 hrs by macrodilution method; type: functional, Salmonella enterica subsp. enterica serovar Typhimurium; settings: Salmonella enterica
Shigella boydii = experiment: Antimicrobial activity against Shigella boydii incubated for 16 to 18 hrs by macrodilution method; type: functional
Edwardsiella tarda = experiment: Antimicrobial activity against Edwardsiella tarda incubated for 16 to 18 hrs by macrodilution method; type: functional
Klebsiella pneumoniae = experiment: Antimicrobial activity against Klebsiella pneumoniae incubated for 16 to 18 hrs by macrodilution method; type: functional
Klebsiella aerogenes = experiment: Antimicrobial activity against Enterobacter aerogenes incubated for 16 to 18 hrs by macrodilution method; type: functional
Acinetobacter baumannii = experiment: Antimicrobial activity against Acinetobacter baumannii incubated for 16 to 18 hrs by macrodilution method; type: functional
Morganella morganii = experiment: Antimicrobial activity against Morganella morganii incubated for 16 to 18 hrs by macrodilution method; type: functional
Staphylococcus aureus [4] = experiment: Antimicrobial activity against Staphylococcus aureus Newman incubated for 16 to 18 hrs by macrodilution method; type: functional
Escherichia coli [5] = experiment: Antimicrobial activity against Escherichia coli MG1655 at 2.5 to 80 uM incubated at 37 degC overnight for 18 hrs in presence of ampicillin by checkerboard assay; type: functional, organism-based
Escherichia coli [6] = experiment: Synergistic potentiation of ampicillin-induced antimicrobial effect against Escherichia coli MG1655 at 2.5 to 80 uM incubated at 37 degC overnight for 18 hrs in presence of >4 uM ampicillin by checkerboard assay; type: functional, organism-based
Staphylococcus aureus [7] = experiment: Synergistic potentiation of ampicillin-induced antimicrobial effect against Staphylococcus aureus at 2.5 to 80 uM incubated at 37 degC overnight for 18 hrs in presence of >4 uM ampicillin by checkerboard assay; type: functional, organism-based
Escherichia coli [8] = experiment: Synergistic potentiation of kanamycin-induced antimicrobial effect against Escherichia coli MG1655 at 2.5 to 80 uM incubated at 37 degC overnight for 18 hrs in presence of >4 uM kanamycin by checkerboard assay; type: functional, organism-based
Staphylococcus aureus [9] = experiment: Potentiation of kanamycin-induced antimicrobial effect against Staphylococcus aureus at 2.5 to 80 uM incubated at 37 degC overnight for 18 hrs in presence of kanamycin by checkerboard assay; type: functional, organism-based
Escherichia coli [10] = experiment: Potentiation of novobiocin-induced antimicrobial effect against Escherichia coli MG1655 at 2.5 to 80 uM incubated at 37 degC overnight for 18 hrs in presence of novobiocin by checkerboard assay; type: functional, organism-based
Escherichia coli [11] = experiment: Antimicrobial activity against Escherichia coli MG1655 incubated at 37 degC overnight for 18 hrs; type: functional; settings: MG1655, 18 h
Staphylococcus aureus [12] = experiment: Antimicrobial activity against Staphylococcus aureus incubated at 37 degC overnight for 18 hrs; type: functional

Compound: OCC(CO)(CO)NCC(O)Cn1ccc2cc(Cl)ccc21 (stereo not drawn)
- MIC (Escherichia coli [1]): 320 µM (≈ 105 µg/mL)
- MIC (Escherichia coli [2]): > 320 µM

Compound: OCC(CO)(CO)NC[C@H](O)Cn1c2ccc(Cl)cc2c2cc(Cl)ccc21
- MIC (Escherichia coli [1]): 20 µM (≈ 8.27 µg/mL)
- MIC (Escherichia coli [2]): 80 µM (≈ 33.1 µg/mL)
- MIC50 (Francisella tularensis): 85 µM (≈ 35.1 µg/mL)
- MIC90 (Francisella tularensis): 170 µM (≈ 70.3 µg/mL)
- MIC50 (Bacillus anthracis): 42 µM (≈ 17.4 µg/mL)
- MIC90 (Bacillus anthracis): 42 µM (≈ 17.4 µg/mL)
- MIC50 (Burkholderia mallei): ≥ 170 µM
- MIC90 (Burkholderia mallei): ≥ 170 µM
- MIC50 (Yersinia pestis): ≥ 170 µM
- MIC90 (Yersinia pestis): ≥ 170 µM
- MIC50 [3]: ≥ 170 µM
- MIC90 [3]: ≥ 170 µM

Compound: CCC(CC)CNCC(O)Cn1c2ccc(Cl)cc2c2cc(Cl)ccc21 (stereo not drawn)
- MIC (Escherichia coli [1]): 2.5 µM (≈ 0.983 µg/mL)
- MIC (Escherichia coli [2]): 80 µM (≈ 31.5 µg/mL)
- MIC (Vibrio cholerae): 6.25 µM (≈ 2.46 µg/mL)
- MIC (Salmonella typhimurium): 200 µM (≈ 78.7 µg/mL)
- MIC (Shigella boydii): 25 µM (≈ 9.83 µg/mL)
- MIC (Edwardsiella tarda): 12.5 µM (≈ 4.92 µg/mL)
- MIC (Klebsiella pneumoniae): > 200 µM
- MIC (Klebsiella aerogenes): > 200 µM
- MIC (Acinetobacter baumannii): 25 µM (≈ 9.83 µg/mL)
- MIC (Morganella morganii): > 200 µM
- MIC (Staphylococcus aureus [4]): 5 µM (≈ 1.97 µg/mL)

Compound: CC(CO)(CO)NCC(O)Cn1c2ccc(Cl)cc2c2cc(Cl)ccc21 (stereo not drawn)
- MIC (Escherichia coli [1]): 40 µM (≈ 15.9 µg/mL)
- MIC (Escherichia coli [2]): 80 µM (≈ 31.8 µg/mL)

Compound: CC(C)CCNCC(O)Cn1c2ccc(Cl)cc2c2cc(Cl)ccc21 (stereo not drawn)
- MIC (Escherichia coli [1]): 2.5 µM (≈ 0.948 µg/mL)
- MIC (Escherichia coli [2]): 40 µM (≈ 15.2 µg/mL)
- MIC (Vibrio cholerae): 6.25 µM (≈ 2.37 µg/mL)
- MIC (Salmonella typhimurium): 50 µM (≈ 19 µg/mL)
- MIC (Shigella boydii): 25 µM (≈ 9.48 µg/mL)
- MIC (Edwardsiella tarda): 25 µM (≈ 9.48 µg/mL)
- MIC (Klebsiella pneumoniae): 50 µM (≈ 19 µg/mL)
- MIC (Klebsiella aerogenes): 50 µM (≈ 19 µg/mL)
- MIC (Acinetobacter baumannii): 12.5 µM (≈ 4.74 µg/mL)
- MIC (Morganella morganii): 50 µM (≈ 19 µg/mL)
- MIC (Staphylococcus aureus [4]): 5 µM (≈ 1.9 µg/mL)
- MIC50 (Francisella tularensis): 5 µM (≈ 1.9 µg/mL)
- MIC90 (Francisella tularensis): 10 µM (≈ 3.79 µg/mL)
- MIC50 (Bacillus anthracis): 5 µM (≈ 1.9 µg/mL)
- MIC90 (Bacillus anthracis): 5 µM (≈ 1.9 µg/mL)
- MIC50 (Burkholderia mallei): 21 µM (≈ 7.97 µg/mL)
- MIC90 (Burkholderia mallei): 42 µM (≈ 15.9 µg/mL)
- MIC50 (Yersinia pestis): 21 µM (≈ 7.97 µg/mL)
- MIC90 (Yersinia pestis): 42 µM (≈ 15.9 µg/mL)
- MIC50 [3]: 170 µM (≈ 64.5 µg/mL)
- MIC90 [3]: ≥ 170 µM
- Activity (Escherichia coli [5]): Active
- Activity (Escherichia coli [6]): Active
- Activity (Staphylococcus aureus [7]): Active
- Activity (Escherichia coli [8]): Active
- Activity (Staphylococcus aureus [9]): inactive
- Activity (Escherichia coli [10]): inactive

Compound: OCC(CO)(CO)NCC(O)Cn1c2ccccc2c2ccccc21 (stereo not drawn)
- MIC (Escherichia coli [1]): > 80 µM
- MIC (Escherichia coli [2]): > 320 µM

Compound: OCC(CO)(CO)NCC(O)Cn1c2ccc(Cl)cc2c2cc(Cl)ccc21 (racemic)
- MIC (Escherichia coli [1]): 20 µM (≈ 8.27 µg/mL)
- MIC (Escherichia coli [2]): 80 µM (≈ 33.1 µg/mL)
- MIC (Vibrio cholerae): 50 µM (≈ 20.7 µg/mL)
- MIC (Salmonella typhimurium): 100 µM (≈ 41.3 µg/mL)
- MIC (Shigella boydii): 100 µM (≈ 41.3 µg/mL)
- MIC (Edwardsiella tarda): 100 µM (≈ 41.3 µg/mL)
- MIC (Klebsiella pneumoniae): 200 µM (≈ 82.7 µg/mL)
- MIC (Klebsiella aerogenes): 200 µM (≈ 82.7 µg/mL)
- MIC (Acinetobacter baumannii): 200 µM (≈ 82.7 µg/mL)
- MIC (Morganella morganii): 200 µM (≈ 82.7 µg/mL)
- MIC (Staphylococcus aureus [4]): 40 µM (≈ 16.5 µg/mL)

Compound: CCCCCNCC(O)Cn1c2ccc(Cl)cc2c2cc(Cl)ccc21 (stereo not drawn)
- MIC (Escherichia coli [1]): 5 µM (≈ 1.9 µg/mL)
- MIC (Escherichia coli [2]): 80 µM (≈ 30.3 µg/mL)

Compound: CC(C)CCNCCCn1c2ccc(Cl)cc2c2cc(Cl)ccc21
- MIC (Escherichia coli [1]): 5 µM (≈ 1.82 µg/mL)
- MIC (Escherichia coli [2]): 80 µM (≈ 29.1 µg/mL)

Compound: OCC(CO)NCC(O)Cn1c2ccc(Cl)cc2c2cc(Cl)ccc21 (stereo not drawn)
- MIC (Escherichia coli [1]): 20 µM (≈ 7.67 µg/mL)
- MIC (Escherichia coli [2]): 40 µM (≈ 15.3 µg/mL)

Compound: CCC(CO)(CO)NCC(O)Cn1c2ccc(Cl)cc2c2cc(Cl)ccc21 (stereo not drawn)
- MIC (Escherichia coli [1]): 20 µM (≈ 8.23 µg/mL)
- MIC (Escherichia coli [2]): 160 µM (≈ 65.8 µg/mL)

Compound: OCC(CO)(CO)NC[C@@H](O)Cn1c2ccc(Cl)cc2c2cc(Cl)ccc21
- MIC (Escherichia coli [1]): 20 µM (≈ 8.27 µg/mL)
- MIC (Escherichia coli [2]): 80 µM (≈ 33.1 µg/mL)

Compound: CC1(C)S[C@@H]2[C@H](NC(=O)[C@H](N)c3ccccc3)C(=O)N2[C@H]1C(=O)O [AMPICILLIN]
- MIC (Escherichia coli [11]): 10 µM (≈ 3.49 µg/mL)
- MIC (Staphylococcus aureus [12]): 1 µM (≈ 0.349 µg/mL)

Compound: CC(C)(C)NCC(O)Cn1c2ccc(Cl)cc2c2cc(Cl)ccc21 (stereo not drawn)
- MIC (Escherichia coli [1]): 40 µM (≈ 14.6 µg/mL)
- MIC (Escherichia coli [2]): 160 µM (≈ 58.4 µg/mL)

Compound: CO[C@@H]1[C@@H](OC(N)=O)[C@@H](O)[C@H](Oc2ccc3c(O)c(NC(=O)c4ccc(O)c(CC=C(C)C)c4)c(=O)oc3c2C)OC1(C)C [NOVOBIOCIN]
- MIC (Escherichia coli [1]): 1.2 µM (≈ 0.735 µg/mL)
- MIC (Escherichia coli [11]): 320 µM (≈ 196 µg/mL)

Compound: OC(CNC1CCCCC1)Cn1c2ccc(Cl)cc2c2cc(Cl)ccc21 (stereo not drawn)
- MIC (Escherichia coli [1]): 2.5 µM (≈ 0.978 µg/mL)
- MIC (Escherichia coli [2]): 40 µM (≈ 15.7 µg/mL)
- MIC (Vibrio cholerae): 6.25 µM (≈ 2.45 µg/mL)
- MIC (Salmonella typhimurium): 100 µM (≈ 39.1 µg/mL)
- MIC (Shigella boydii): 50 µM (≈ 19.6 µg/mL)
- MIC (Edwardsiella tarda): 50 µM (≈ 19.6 µg/mL)
- MIC (Klebsiella pneumoniae): > 200 µM
- MIC (Klebsiella aerogenes): > 200 µM
- MIC (Acinetobacter baumannii): 25 µM (≈ 9.78 µg/mL)
- MIC (Morganella morganii): > 200 µM
- MIC (Staphylococcus aureus [4]): 5 µM (≈ 1.96 µg/mL)
- MIC50 (Francisella tularensis): 2.5 µM (≈ 0.978 µg/mL)
- MIC90 (Francisella tularensis): 10 µM (≈ 3.91 µg/mL)
- MIC50 (Bacillus anthracis): 5 µM (≈ 1.96 µg/mL)
- MIC90 (Bacillus anthracis): 10 µM (≈ 3.91 µg/mL)
- MIC50 (Burkholderia mallei): 21 µM (≈ 8.22 µg/mL)
- MIC90 (Burkholderia mallei): 82 µM (≈ 32.1 µg/mL)
- MIC50 (Yersinia pestis): 41 µM (≈ 16 µg/mL)
- MIC90 (Yersinia pestis): 82 µM (≈ 32.1 µg/mL)
- MIC50 [3]: 164 µM (≈ 64.2 µg/mL)
- MIC90 [3]: ≥ 164 µM

Compound: CCC(CC)NCC(O)Cn1c2ccc(Cl)cc2c2cc(Cl)ccc21 (stereo not drawn)
- MIC (Escherichia coli [1]): 5 µM (≈ 1.9 µg/mL)
- MIC (Escherichia coli [2]): 80 µM (≈ 30.3 µg/mL)

Compound: NC[C@H]1O[C@H](O[C@H]2[C@H](O)[C@@H](O[C@H]3O[C@H](CO)[C@@H](O)[C@H](N)[C@H]3O)[C@H](N)C[C@@H]2N)[C@H](O)[C@@H](O)[C@@H]1O [KANAMYCIN]
- MIC (Escherichia coli [11]): 10 µM (≈ 4.85 µg/mL)
- MIC (Staphylococcus aureus [12]): 2.5 µM (≈ 1.21 µg/mL)
